Structures can show the parent of a compound that is named as a salt.
How the values were obtained:
C6 cells [1] = assay: Rate of dead cells in PDT-treated or anti-cancer agent-treated C6 cells (Annexin V/PI), Example 2; type: cell-based, rat; settings: C6 cells cultured 48 hours with MTX 20 μg/mL, DOX 75 μg/mL or EPI 62.5 μg/mL
Method: C6 cells were cultured in 2.5% FBS/F-12K medium supplemented with 5-ALA to a final concentration of 1 mM in a 5% CO2 incubator at 37° C. for 24 hours. After the culture, the cells were removed with 0.25% trypsin-EDTA solution, and the collected cells were adjusted to 2×10^7 cells/mL with PBS. The cell suspension thus prepared was injected into a Tygon tube (inner diameter: 0.79 mm), wrapped around a light irradiator (Otsuka Electronics Co., Ltd.), and irradiated with light having a wavelength of 630 nm and an irradiation energy density of 7.5 J/cm^2 (illuminance of 124.5 mW/cm^2 for 1 minute). The treated cells were pooled and the irradiation was repeated until the required dose was obtained. The irradiated cells were divided into three equal parts, and one was administered to F344 rats (8 week-old at the start of study, male, Charles River Laboratories Japan Inc.) at 0.5 mL (1×10^7 cells) per animal from the tail vein under isoflurane anesthesia (PDT iv group, 3 animals). Another one was centrifuged to remove its culture supernatant and adjusted to 2×10^7 cells/mL with PBS, and the cell suspension thus prepared was administered at 0.5 mL (1×10^7 cells) per animal from the tail vein in the same manner as the PDT iv group (PDT-cell iv group, 3 animals). The cells of the remaining one of the three equal parts were suspended in 2.5% FBS/F-12K medium and cultured in a 5% CO2 incubator at 37° C. for 24 hours, and then collected and adjusted to 2×10^7 cells/mL with PBS, and the cell suspension thus prepared was administered at 0.5 mL (1×10^7 cells) per animal from the tail vein in the same manner as other groups (PDT/24 h-cell iv group, 3 animals). Intravenous administration of these PDT-treated cells was performed a total of 3 times (Day−15, −8, −1). […]
The PDT-treated or anti-cancer agent-treated C6 cells were stained with FITC-labeled Annexin V and PI by using the FITC Annexin V Apoptosis Detection Kit I. After that, the rate of dead cells was analyzed with a flow cytometer.

C6 cells [2] = assay: Tumor volume after subcutaneous transplantation of C6 cells in rats given PDT-treated or anti-cancer agent-treated cells intravenously, Example 2; type: in vivo, rat; settings: intravenous administration of treated C6 cells to rats
Method: C6 cells were cultured in 2.5% FBS/F-12K medium supplemented with 5-ALA to a final concentration of 1 mM in a 5% CO2 incubator at 37° C. for 24 hours. After the culture, the cells were removed with 0.25% trypsin-EDTA solution, and the collected cells were adjusted to 2×10^7 cells/mL with PBS. The cell suspension thus prepared was injected into a Tygon tube (inner diameter: 0.79 mm), wrapped around a light irradiator (Otsuka Electronics Co., Ltd.), and irradiated with light having a wavelength of 630 nm and an irradiation energy density of 7.5 J/cm^2 (illuminance of 124.5 mW/cm^2 for 1 minute). The treated cells were pooled and the irradiation was repeated until the required dose was obtained. The irradiated cells were divided into three equal parts, and one was administered to F344 rats (8 week-old at the start of study, male, Charles River Laboratories Japan Inc.) at 0.5 mL (1×10^7 cells) per animal from the tail vein under isoflurane anesthesia (PDT iv group, 3 animals). […]
On the 4th, 6th, 8th and 10th days after preparation of the cancer-bearing rats (Day 4, 6, 8, 10), the major axis and the minor axis of the tumor were measured by using a caliper, and the tumor volume was calculated according to the following formula. […]

[3] = subcutaneous administration; had been reported; cited from earlier work

Row | SMILES | living cells (Annexin V−/PI−) (C6 cells [1]) [%] | antitumor immunity (C6 cells [2]) | immunostimulatory effects [3]
1 | COc1cccc2c1C(=O)c1c(O)c3c(c(O)c1C2=O)C[C@@](O)(C(=O)CO)C[C@@H]3O[C@H]1C[C@H](N)[C@H](O)[C@H](C)O1 [DOX, doxorubicin hydrochloride] | 5 | not induced | immunostimulatory effects
2 | COc1cccc2c1C(=O)c1c(O)c3c(c(O)c1C2=O)C[C@@](O)(C(=O)CO)C[C@@H]3O[C@H]1C[C@H](N)[C@@H](O)[C@H](C)O1 [EPI, epirubicin hydrochloride] | 5 | – | –
3 | O=C1c2c(O)ccc(O)c2C(=O)c2c(NCCNCCO)ccc(NCCNCCO)c21 [MTX, mitoxantrone dihydrochloride] | 1 | – | –
